Test results published in patent US20100021903A1, “Use of Genetic Determinants in Cardiovascular Risk Assessment” (priority 2006, published 2010).

Tests used:
[1] = system: hypertensive patients with coronary artery disease; test: INVEST-GENES cohort: primary and secondary cardiovascular outcomes (death, nonfatal MI, nonfatal stroke), Cox regression; conditions: for Incidence, All-cause Mortality / Incidence, Nonfatal MI / Incidence, Nonfatal Stroke / Incidence, Primary Outcome: crude incidence; for HR, KCNMB1 codon 110 (Leu110) variant allele on primary outcome, separately by treatment strategy: within patients randomized to the named drug; for HR (95% CI) Atenolol vs. Verapamil, Nonfatal MI / HR (95% CI) Atenolol vs. Verapamil, Nonfatal Stroke / HR (95% CI) Atenolol vs. Verapamil, Primary Outcome: reduced model
[2] = system: hypertensive patients with coronary artery disease; test: Nested case-control study within INVEST-GENES: primary outcome, logistic regression; conditions: for Total Number of Events: primary outcome; for OR, ALOX5 promoter polymorphism variant carriers, adverse cardiovascular outcomes, By Drug Therapy: within patients on the named drug; for SNP effect in arm (OR, 95% CI), Death / SNP effect in arm (OR, 95% CI), MI / SNP effect in arm (OR, 95% CI), Stroke: within treatment arm; for OR, effect of CACNB2 rs2357928 genotype on the primary outcome, by treatment: within CCB-treated or β-blocker-treated patients
Excerpt: The model contained the following baseline covariates used for primary INVEST analyses: age, sex, race/ethnicity, body mass index, smoking, INVEST treatment strategy, previous myocardial infarction, previous stroke, heart failure, diabetes, renal insufficiency, baseline systolic blood pressure, diuretic use, and ACE inhibitor use, plus codon 65 and 110 genotype, and the interaction term between genotype and strategy assignment.
Relationships between single nucleotide polymorphisms (SNP) and haplotypes of arachidonate 5-lipoxygenase pathway genes and cardiovascular events were tested. […] A haplotype of ALOX5AP and SNPs was genotyped in both LTC4S and LTA4H, encoding 5-lipoxygenase activating protein, leukotriene C4 synthase and leukotriene A4 hydrolase respectively. The effects of these variants on the primary outcome using the X^2 test and logistic regression was analyzed.
Pharmacogenetic relationships were tested between a polymorphism of the LTA4H gene which encodes leukotriene A4 hydrolase and cardiovascular events based on drug-treatment. […] The LTA4H SNP rs2660845 were genotyped and analyzed the effect and interaction of this variant with antihypertensive drug treatment on the primary outcome with the X^2 test and logistic regression.
There was minimal linkage disequilibrium in CACNA1C and CACNB2. 8 SNPs in CACNA1C were examined in the case-control group.

[3] = system: hypertensive subjects; conditions: Nguyen et al. 2000; cited from earlier work
[4] = system: hypertensive patients with coronary artery disease; test: Blood pressure response to atenolol and number of antihypertensive drugs needed to reach BP control by ADRB1/ADRB2 genotype
[5] = primary outcome, 0 GGC (ADRB2 46G-79G-523C) copies
[6] = LTA4H rs2660845 G-carriers (n = 466)
[7] = Patients on Atenolol (N = 2,830)
[8] = Patients on Atenolol, number of patients

Molecule: NS(=O)(=O)c1cc2c(cc1Cl)NCNS2(=O)=O [diuretics, hydrochlorothiazide]
- HR, interaction between ADD1 carrier status and diuretics ([1]; adjusted Cox PH model, primary outcome): 1.02
- Time to primary outcome event, users vs non-users of diuretics ([1]; regardless of ADD1 variant carrier status, Kaplan Meier): not different

Molecule: COc1ccc(CCN(C)CCCC(C#N)(c2ccc(OC)c(OC)c2)C(C)C)cc1OC (stereo not drawn) [verapamil SR, verapamil]
- Incidence, All-cause Mortality ([1]; 0 copies ADRB2 46G-79G-523C): 7.3 per 1000 patient-years
- Incidence, Nonfatal MI ([1]; 0 copies ADRB2 46G-79G-523C): 5.9 per 1000 patient-years
- Incidence, Nonfatal Stroke ([1]; 0 copies ADRB2 46G-79G-523C): 5.1 per 1000 patient-years
- Incidence, Primary Outcome ([1]; 0 copies ADRB2 46G-79G-523C): 18.3 per 1000 patient-years
- Incidence, All-cause Mortality ([1]; 1 copy ADRB2 46G-79G-523C): 7.0 per 1000 patient-years
- Incidence, Nonfatal MI ([1]; 1 copy ADRB2 46G-79G-523C): 2.9 per 1000 patient-years
- Incidence, Nonfatal Stroke ([1]; 1 copy ADRB2 46G-79G-523C): 4.7 per 1000 patient-years
- Incidence, Primary Outcome ([1]; 1 copy ADRB2 46G-79G-523C): 14.5 per 1000 patient-years
- Incidence, All-cause Mortality ([1]; 2 copies ADRB2 46G-79G-523C): 4.2 per 1000 patient-years
- Incidence, Nonfatal MI ([1]; 2 copies ADRB2 46G-79G-523C): 6.3 per 1000 patient-years
- Incidence, Nonfatal Stroke ([1]; 2 copies ADRB2 46G-79G-523C): 6.3 per 1000 patient-years
- Incidence, Primary Outcome ([1]; 2 copies ADRB2 46G-79G-523C): 17.0 per 1000 patient-years
- Modification of the adverse effect of ADRB2 46G-79C-523C haplotype on primary outcome ([1]; Example 4): Neither atenolol nor verapamil SR modified the adverse effect of this haplotype
- Systolic and diastolic blood pressure control ([1]; patients treated with verapamil vs atenolol, FIG. 23): did not differ
- Events/1000 Patient-Years [1, 5]: 18.0 Events/1000 Patient-Years
- Events/1000 Patient-Years ([1]; primary outcome, 1 GGC copy): 14.4 Events/1000 Patient-Years
- Events/1000 Patient-Years ([1]; primary outcome, 2 GGC copies): 17.1 Events/1000 Patient-Years
- Events/1000 Patient-Years ([1]; primary outcome, All Patients): 16.4 Events/1000 Patient-Years
- HR, KCNMB1 codon 110 (Leu110) variant allele on primary outcome, separately by treatment strategy [1]: 0.55
- HRadj, ADRB1 49S-389R haplotype on mortality, by treatment ([1]; within patients treated with the named drug): 8.00
- Total Number of Events ([2]; All subjects (n = 935)): 137
- Total Number of Events ([2]; LTA4H AA (n = 469)): 68
- Total Number of Events [2, 6]: 60
- OR, ALOX5 promoter polymorphism variant carriers, adverse cardiovascular outcomes, By Drug Therapy [2]: 1.964
- systolic blood pressure response, average decrease [3]: 12 mmHg

Molecule: verapamil [verapamil SR]
- SNP effect in arm (OR, 95% CI), Death ([2]; CACNA1C rs1051375): 1.28 (0.82, 2.0)
- SNP effect in arm (OR, 95% CI), MI ([2]; CACNA1C rs1051375): 0.97 (0.61-1.53)
- SNP effect in arm (OR, 95% CI), Stroke ([2]; CACNA1C rs1051375): 1.83 (1.13-2.97)
- SNP effect in arm (OR, 95% CI), Death ([2]; CACNA1C rs10848683): 0.659 (0.365, 1.192)
- SNP effect in arm (OR, 95% CI), MI ([2]; CACNA1C rs10848683): 0.733 (0.415, 1.294)
- SNP effect in arm (OR, 95% CI), Stroke ([2]; CACNA1C rs10848683): 1.340 (0.767, 2.341)
- OR, effect of CACNB2 rs2357928 genotype on the primary outcome, by treatment [2]: 1.00

Molecule: CC(C)NCC(O)COc1ccc(CC(N)=O)cc1 (stereo not drawn) [atenolol]
- Incidence, Nonfatal MI ([1]; 0 copies ADRB2 46G-79G-523C): 3.5 per 1000 patient-years
- Incidence, Nonfatal Stroke ([1]; 0 copies ADRB2 46G-79G-523C): 4.2 per 1000 patient-years
- Incidence, Primary Outcome ([1]; 0 copies ADRB2 46G-79G-523C): 10.8 per 1000 patient-years
- HR (95% CI) Atenolol vs. Verapamil, Nonfatal MI ([1]; 0 copies ADRB2 46G-79G-523C): 0.60 (0.31-1.16)
- HR (95% CI) Atenolol vs. Verapamil, Nonfatal Stroke ([1]; 0 copies ADRB2 46G-79G-523C): 0.85 (0.44-1.62)
- HR (95% CI) Atenolol vs. Verapamil, Primary Outcome ([1]; 0 copies ADRB2 46G-79G-523C): 0.60 (0.41-0.87)
- Incidence, Nonfatal MI ([1]; 1 copy ADRB2 46G-79G-523C): 5.8 per 1000 patient-years
- Incidence, Nonfatal Stroke ([1]; 1 copy ADRB2 46G-79G-523C): 4.8 per 1000 patient-years
- HR (95% CI) Atenolol vs. Verapamil, Nonfatal MI ([1]; 1 copy ADRB2 46G-79G-523C): 1.94 (0.89-4.20)
- HR (95% CI) Atenolol vs. Verapamil, Nonfatal Stroke ([1]; 1 copy ADRB2 46G-79G-523C): 1.01 (0.50-2.05)
- HR (95% CI) Atenolol vs. Verapamil, Primary Outcome ([1]; 1 copy ADRB2 46G-79G-523C): 1.03 (0.69-1.54)
- Incidence, Nonfatal MI ([1]; 2 copies ADRB2 46G-79G-523C): 9.1 per 1000 patient-years
- Incidence, Nonfatal Stroke ([1]; 2 copies ADRB2 46G-79G-523C): 5.1 per 1000 patient-years
- Incidence, Primary Outcome ([1]; 2 copies ADRB2 46G-79G-523C): 22.3 per 1000 patient-years
- HR (95% CI) Atenolol vs. Verapamil, Nonfatal MI ([1]; 2 copies ADRB2 46G-79G-523C): 1.53 (0.51-4.57)
- HR (95% CI) Atenolol vs. Verapamil, Nonfatal Stroke ([1]; 2 copies ADRB2 46G-79G-523C): 0.79 (0.22-2.81)
- HR (95% CI) Atenolol vs. Verapamil, Primary Outcome ([1]; 2 copies ADRB2 46G-79G-523C): 1.35 (0.68-2.67)
- HR, primary outcome, atenolol vs. verapamil SR ([1]; carriers (1 or 2 copies) of ADRB2 46G-79G-523C haplotype): 1.10
- HR, primary outcome, atenolol vs. verapamil SR ([1]; non-carriers of ADRB2 46G-79G-523C haplotype): 0.59
- Events/1000 Patient-Years [1, 5]: 10.6 Events/1000 Patient-Years
- Events/1000 Patient-Years ([1]; primary outcome, 1 GGC copy): 15.1 Events/1000 Patient-Years
- Events/1000 Patient-Years ([1]; primary outcome, 2 GGC copies): 23.5 Events/1000 Patient-Years
- Events/1000 Patient-Years ([1]; primary outcome, All Patients): 13.6 Events/1000 Patient-Years
- HR, KCNMB1 codon 110 (Leu110) variant allele on primary outcome, separately by treatment strategy [1]: 0.84
- RR: BB vs CCB by genotype, Death ([2]; CACNA1C rs1051375): 0.50
- RR: BB vs CCB by genotype, MI ([2]; CACNA1C rs1051375): 0.39
- RR: BB vs CCB by genotype, Stroke ([2]; CACNA1C rs1051375): 0.38
- SNP effect in arm (OR, 95% CI), Death ([2]; CACNA1C rs1051375): 0.64 (0.37-1.12)
- SNP effect in arm (OR, 95% CI), MI ([2]; CACNA1C rs1051375): 0.38 (0.22-0.68)
- SNP effect in arm (OR, 95% CI), Stroke ([2]; CACNA1C rs10848683): 0.706 (0.375, 1.329)
- Total Number of Events ([2]; All subjects (n = 935)): 113
- Total Number of Events ([2]; LTA4H AA (n = 469)): 41
- Total Number of Events [2, 6]: 63
- OR, effect of CACNB2 rs2357928 genotype on the primary outcome, by treatment [2]: 0.50
- OR, ALOX5 promoter polymorphism variant carriers, adverse cardiovascular outcomes, By Drug Therapy [2]: 1.577
- covariate-adjusted systolic blood pressure reduction ([4]; 1 copy GEC, 6 weeks): −7.9 mmHg
- covariate-adjusted systolic blood pressure reduction ([4]; 2 copies GEC, 6 weeks): −6.7 mmHg
- patients who achieved sustained blood pressure control ([4]; 619 blood pressure response study patients): 79.8%
- mean systolic blood pressure after 6 weeks of treatment ([4]; 619 patients whose BP change could be attributed to atenolol, mean±SD): 139.7±18.3 mmHg
- mean reduction in diastolic blood pressure ([4]; 619 patients, 6 weeks): −6.2±10.3 mmHg
- mean reduction in systolic blood pressure ([4]; 619 patients, 6 weeks): −11.1±19.5 mmHg
- mean diastolic blood pressure after 6 weeks of treatment ([4]; 619 patients, mean±SD): 80.4±9.9 mmHg
- patients who achieved sustained blood pressure control ([4]; 2,772 patients with complete genotype data, <140/90 mmHg): 75.0%
- Covariate-Adjusted Decline in blood pressure, Diastolic ([4]; ADRB2 C523A AA): −7.4 mmHg
- Covariate-Adjusted Decline in blood pressure, Systolic ([4]; ADRB2 C523A AA): −15.2 mmHg
- Covariate-Adjusted Decline in blood pressure, Diastolic ([4]; ADRB2 C523A CA): −4.5 mmHg
- Covariate-Adjusted Decline in blood pressure, Systolic ([4]; ADRB2 C523A CA): −9.9 mmHg
- Covariate-Adjusted Decline in blood pressure, Diastolic ([4]; ADRB2 C523A CC): −5.1 mmHg
- Covariate-Adjusted Decline in blood pressure, Systolic ([4]; ADRB2 C523A CC): −8.2 mmHg
- Covariate-Adjusted Decline in blood pressure, Diastolic ([4]; ADRB2 Gln27Glu GlnGln): −5.9 mmHg
- Covariate-Adjusted Decline in blood pressure, Systolic ([4]; ADRB2 Gln27Glu GlnGln): −11.2 mmHg
- Covariate-Adjusted Decline in blood pressure, Diastolic ([4]; ADRB2 Gln27Glu GlnGlu): −4.8 mmHg
- Covariate-Adjusted Decline in blood pressure, Systolic ([4]; ADRB2 Gln27Glu GlnGlu): −8.8 mmHg
- Covariate-Adjusted Decline in blood pressure, Diastolic ([4]; ADRB2 Gln27Glu GluGlu): −3.4 mmHg
- Covariate-Adjusted Decline in blood pressure, Systolic ([4]; ADRB2 Gln27Glu GluGlu): −6.0 mmHg
- Covariate-Adjusted Decline in blood pressure, Diastolic ([4]; ADRB2 Gly16Arg ArgArg): −4.9 mmHg
- Covariate-Adjusted Decline in blood pressure, Systolic ([4]; ADRB2 Gly16Arg ArgArg): −8.0 mmHg
- Covariate-Adjusted Decline in blood pressure, Diastolic ([4]; ADRB2 Gly16Arg GlyArg): −5.9 mmHg
- Covariate-Adjusted Decline in blood pressure, Systolic ([4]; ADRB2 Gly16Arg GlyArg): −10.9 mmHg
- Covariate-Adjusted Decline in blood pressure, Diastolic ([4]; ADRB2 Gly16Arg GlyGly): −4.2 mmHg
- Covariate-Adjusted Decline in blood pressure, Systolic ([4]; ADRB2 Gly16Arg GlyGly): −9.0 mmHg
- DBP at 12 months, mean (SD) [4, 7]: 78.3 mmHg
- DBP at 24 months, mean (SD) [4, 7]: 77.7 mmHg
- SBP at 12 months, mean (SD) [4, 7]: 134.0 mmHg
- SBP at 24 months, mean (SD) [4, 7]: 132.3 mmHg
- Percent of visits with blood pressure in control, mean (SD) ([4]; Patients on Atenolol (N = 2,830), atenolol-based strategy, SBP < 140 and DBP < 90 mmHg): 59.4
- BP in control at 12 months, No. [4, 8]: 1725
- BP in control at 24 months, No. [4, 8]: 1695
- BP in control at 12 months, (%) ([4]; Patients on Atenolol, percentage of patients at risk at 12 months): (66.0) %
- BP in control at 24 months, (%) ([4]; Patients on Atenolol, percentage of patients at risk at 24 months): (69.5) %
- Association of ADRB1 haplotypes with blood pressure response to atenolol ([4]; p values >0.2): not significantly associated
